Legend:
Experiment in all cases: relative viability (nuclei count vs DMSO), 5 days (fraction); higher = more cells survive
[1] = compound: C/C(=N\NC(=S)N1CCC1)/C2=CC=CC=N2 + Cc1nc(NC(=O)N2CCC[C@H]2C(N)=O)sc1-c1ccnc(C(C)(C)C(F)(F)F)c1 [Alpelisib] (partner 2 µM)
Summary of the method: (§1)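 Lung cancer cell lines were seeded in 1536-well plates and dosed by pin tool the next day, with either a single drug or a fixed anchor-drug dose combined with five library-drug doses (not always all listed) spaced in √10 steps. Five days later, one step fixed the cells and stained their nuclei (final 0.05% Triton X-100, 1% formaldehyde, 1 ug/ml Hoechst), and nuclei were counted on 4× images. Relative viability is the nuclei count in treated wells divided by the count in vehicle wells, and each value is the median of duplicate plates.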

[2] = compound: C/C(=N\NC(=S)N1CCC1)/C2=CC=CC=N2 + Cc1nc(Nc2ncc(C(=O)Nc3c(C)cccc3Cl)s2)cc(N2CCN(CCO)CC2)n1 [Dasatinib] (partner 0.075 µM)
Summary of the method: as §1

[3] = compound: C/C(=N\NC(=S)N1CCC1)/C2=CC=CC=N2 + CC(=O)c1c(C)c2cnc(Nc3ccc(N4CCNCC4)cn3)nc2n(C2CCCC2)c1=O [Palbociclib] (partner 0.5 µM)
Summary of the method: as §1

[4] = compound: C/C(=N\NC(=S)N1CCC1)/C2=CC=CC=N2 + CC(C)C[C@H](NC(=O)[C@H](Cc1ccccc1)NC(=O)c1cnccn1)B(O)O [Bortezomib] (partner 0.002 µM)
Summary of the method: as §1

Cell Line | relative viability ([1]; first compound 0.05 µM) | relative viability ([1]; first compound 0.1581 µM) | relative viability ([1]; first compound 0.5 µM) | relative viability ([1]; first compound 1.581 µM) | relative viability ([1]; first compound 5 µM) | relative viability ([2]; first compound 0.05 µM) | relative viability ([2]; first compound 0.1581 µM) | relative viability ([2]; first compound 0.5 µM) | relative viability ([2]; first compound 1.581 µM) | relative viability ([2]; first compound 5 µM) | relative viability ([3]; first compound 0.05 µM) | relative viability ([3]; first compound 0.1581 µM) | relative viability ([3]; first compound 0.5 µM) | relative viability ([3]; first compound 1.581 µM) | relative viability ([3]; first compound 5 µM) | relative viability ([4]; first compound 0.05 µM) | relative viability ([4]; first compound 0.1581 µM) | relative viability ([4]; first compound 0.5 µM) | relative viability ([4]; first compound 1.581 µM) | relative viability ([4]; first compound 5 µM)
NCI-H2085 | 0.288 | 0.27 | 0.314 | 0.282 | 0.272 | 0.209 | 0.219 | 0.27 | 0.259 | 0.229 | 0.275 | 0.303 | 0.261 | 0.279 | 0.273 | 0.33 | 0.298 | 0.323 | 0.269 | 0.262
NCI-H1395 | 0.4 | 0.354 | 0.423 | 0.354 | 0.463 | 0.27 | 0.362 | 0.315 | 0.29 | 0.326 | 0.33 | 0.333 | 0.329 | 0.366 | 0.381 | – | – | – | – | –
NCI-H1648 | – | – | – | – | – | – | – | – | – | – | 0.258 | 0.301 | 0.322 | 0.352 | 0.337 | – | – | – | – | –
NCI-H460 | 0.0117 | 0.0186 | 0.0138 | 0.0126 | 0.0076 | 0.0259 | 0.0347 | 0.0269 | 0.0294 | 0.0151 | 0.018 | 0.0146 | 0.0188 | 0.0169 | 0.0139 | 0.0169 | 0.0164 | 0.0256 | 0.0129 | 0.0105
A549 | 0.0613 | 0.0588 | 0.054 | 0.0318 | 0.0406 | – | – | – | – | – | – | – | – | – | – | – | – | – | – | –
IA-LM | 0.0645 | 0.0816 | 0.0594 | 0.0596 | 0.0781 | – | – | – | – | – | – | – | – | – | – | 0.0596 | 0.0778 | 0.0529 | 0.0604 | 0.0675
EKVX | 0.119 | 0.124 | 0.111 | 0.13 | 0.151 | 0.186 | 0.174 | 0.164 | 0.172 | 0.192 | 0.13 | 0.149 | 0.109 | 0.141 | 0.158 | 0.138 | 0.129 | 0.103 | 0.141 | 0.144
ChaGo-K-1 | – | – | – | – | – | 0.137 | 0.178 | 0.17 | 0.131 | 0.168 | 0.144 | 0.408 | 0.144 | 0.132 | 0.148 | 0.285 | 0.462 | 0.285 | 0.221 | 0.318
NCI-H1755 | 0.471 | 0.834 | 0.172 | 0.201 | 0.187 | 0.16 | 0.202 | 0.157 | 0.198 | 0.247 | 0.407 | 0.452 | 0.33 | 0.294 | 0.303 | 0.331 | 0.287 | 0.208 | 0.206 | 0.204
NCI-H2228 | 0.154 | 0.18 | 0.227 | 0.124 | 0.147 | 0.133 | 0.121 | 0.135 | – | 0.0925 | 0.134 | 0.167 | 0.127 | 0.0641 | 0.315 | 0.169 | 0.295 | 0.161 | 0.119 | 0.179
NCI-H2087 | 0.24 | 0.196 | 0.246 | 0.141 | 0.151 | 0.129 | 0.15 | 0.15 | 0.107 | 0.0833 | 0.104 | 0.0945 | 0.12 | 0.118 | 0.0998 | 0.219 | 0.223 | 0.309 | 0.132 | 0.125
